Measured values from ChEMBL document CHEMBL5604062, “ASAP - ZIKV NS2B-NS3 protease fluorescence dose response” (2024).
“And” between values parts separate entries of the source, which are not always exact repeats. Equal entries are not always repeated.

Target: Nonstructural protein 3 (Zika virus, UniProt A0A024AXB9)
Test: Functional biochemical assay to identify treatments for viral infectious disease that targets Zika NS2B-NS3 protease. Utilizing a direct enzyme activity measurement method, reading the fluorescence intensity is used to characterize the relative potency of inhibitors as IC50.
Set-up: species or system PRVABC59

Nonstructural protein 3, sequence (A0A024AXB9 whole entry): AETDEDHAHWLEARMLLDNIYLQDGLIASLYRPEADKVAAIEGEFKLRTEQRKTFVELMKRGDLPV

| IC50 | SMILES |
| --- | --- |
| > 99.5 µM | Brc1csc(CNCCc2nnc[nH]2)c1 |
| > 99.5 µM | FC(F)(F)c1nc(CNCc2cocn2)cs1 |
| > 99.5 µM | COc1nc(Cl)c(CSc2nc(C)co2)s1 |
| 3.05 µM | NCc1cccc(NC(=O)c2cc(Cl)cc3c2cnn3CC2CC2)c1 |
| 43.6 µM | Cc1ccc(S(=O)(=O)N2Cc3ccccc3C[C@@H](C(=O)Nc3cccc(CN)c3)C2)cc1 |
| > 99.5 µM | OCCCCCc1nc(-c2ccc(Br)o2)no1 |
| > 99.5 µM | Cn1cc([C@@H]2C[C@H](C(=O)Nc3cccc(CN)c3)CC(=O)N2)cn1 |
| > 99.5 µM | O=C(NCCc1nc2ccccc2[nH]1)c1cc2ccc(F)cc2s1 |
| > 99.5 µM | Cc1cc(C(=O)Nc2cccc(CN)c2)nc(C)n1 |
| > 99.5 µM | Cc1cc(C(=O)Nc2cccc(CN)c2)c2c(C)nn(CC(=O)NC(C)C)c2n1 |
| 39.7 µM | N[C@@H](CCO)c1cccc(NC(=O)c2cc(Cl)cc(NC(=O)OCc3ccccc3)c2)c1 |
| > 99.5 µM | CN(C)[C@@H]1CCC[C@@H](C(=O)Nc2cccc(CN)c2)C1 |
| 13.1 µM and 12.9 µM | C[C@@H](N)c1cccc(NC(=O)[C@H]2[C@H]3CCCCC[C@H]3[C@H]2NC(=O)OCc2ccccc2)c1 |
| > 99.5 µM | Cc1cc(C(=O)Nc2cccc(CN)c2)cc(O)n1 |
| > 99.5 µM | Cc1ccc(S(=O)(=O)CCCn2ccc3sccc3c2=O)cc1 |
| 35.3 µM | COc1ccc(-c2cccc([C@@H](NC(=O)OCc3ccccc3)C(=O)Nc3cccc(CN)c3)c2)cn1 |
| > 99.5 µM | c1coc(CSCc2nc(-c3nc[nH]n3)no2)c1 |
| > 99.5 µM | NCc1cccc(NC(=O)[C@@H]2[C@H](N)[C@@H]3CCCCC[C@@H]32)c1 |
| > 99.5 µM | NCc1cccc(NC(=O)[C@@H]2CCC[C@]3(CCNC3=O)C2)c1 |
| 55.6 µM | NCc1cccc(NC(=O)c2c(F)c(Cl)cc(NC(=O)OCc3ccccc3)c2F)c1 |
| > 99.5 µM | CC(C)[C@@H]1CC[C@@H](C)C[C@H]1C(=O)Nc1cccc(CN)c1 |
| 1.87 µM | NCc1cccc(NC(=O)c2cccc(CN)c2)c1 |
| > 99.5 µM | O=C(Nc1ccc(Cl)cc1C(=O)Nc1cccc(C2CCNCC2)c1)OCc1ccccc1 |
| > 99.5 µM | NCc1cccc(NC(=O)[C@@]23CCC[C@H](C2)N3C(=O)OCc2ccccc2)c1 |

| IC50 | SMILES |
| --- | --- |
| 70.3 µM | CN(C)Cc1ccc(NC(=O)c2cc(Cl)cc(NC(=O)OCc3ccccc3)c2)cc1 |
| > 99.5 µM | NCc1cccc(NC(=O)[C@@H]2CCC[C@H](OC(F)(F)F)C2)c1 |
| > 99.5 µM | Cc1cc(C(=O)Nc2cccc(CN)c2)cc(NCC(F)(F)F)n1 |
| > 99.5 µM | Cc1cc(C(=O)Nc2cccc(CN)c2)c2nc(C)n(C)c2n1 |
| > 99.5 µM | C[C@@H]1C[C@@H](C(=O)Nc2cccc(CN)c2)CCO1 |
| > 99.5 µM | C[C@@H]1CCC[C@H](C(=O)Nc2cccc(CN)c2)O1 |
| 4.73 µM | NCc1cccc(NC(=O)c2cc(Br)cc3[nH]ccc23)c1 |
| > 99.5 µM | NCc1cccc(NC(=O)[C@H]2COCC3(CCC3)O2)c1 |
| > 99.5 µM | Brc1cnc(Sc2ncc[nH]2)nc1 |
| > 99.5 µM | C[C@H]1CN(C)C[C@H](C(=O)Nc2cccc(CN)c2)O1 |
| > 99.5 µM | c1cc(-c2nnc(NCc3nnn[nH]3)s2)no1 |
| > 99.5 µM | COc1ccc(-n2nnnc2SC(F)F)cc1 |
| 19.5 µM | NCc1cccc(NC(=O)c2cccc3c2CCC3)c1 |
| 10.5 µM | NCCc1cccc(-c2cccc([C@@H](NC(=O)OCc3ccccc3)C(=O)Nc3cccc(CN)c3)c2)c1 |
| > 99.5 µM | CC(C)(C)OC(=O)NCc1cc(Br)cc(NC(=O)c2cc(Cl)cc(NC(=O)OCc3ccccc3)c2)c1 |
| > 99.5 µM | c1cc(Cc2noc(CCc3cscn3)n2)no1 |
| > 99.5 µM | CCn1ncc(-c2noc3nc(C)cc(C(=O)Nc4cccc(CN)c4)c23)c1C |
| > 99.5 µM | NCc1cccc(NC(=O)[C@H]2CCc3nnc(C4CC4)n3C2)c1 |
| > 99.5 µM | O=S(=O)(Cc1nnc(Cc2ccccc2)o1)c1ccc(O)cc1 |
| 8.18 µM | CCOc1cccc(-c2ccc(S(=O)(=O)Nc3cc(F)c(Cl)cc3C(=O)O)cc2)c1 |
| > 99.5 µM | FC(F)(F)c1nnc(COc2cncnc2)s1 |
| 0.114 µM | NCc1cc(Cl)cc(C(=O)Nc2ccc3c(c2)CNC3)c1 |
| > 99.5 µM | CSCc1nnc(SCc2ccncc2)o1 |
